From patent US10336762B2 (priority 2017, dated 2019)
Like-named read-outs stand apart in the source and are kept apart here.

Experiments:
TNFα = test: cells; format: cell-based, human; details: LPS-stimulated human monocytes, read-out: EC50 TNF
IRAK4 enzyme = IRAK4 enzyme (Homo sapiens (Human), UniProt Q9NWZ3); test: biochemical; format: biochemical; details: IRAK4 enzyme, 500 μM ATP
[1] = Homo sapiens, Monocyte, TNFα content
[2] = Homo sapiens, Monocyte, TNFα by TR-FRET

IRAK4 enzyme, sequence (Q9NWZ3 whole entry): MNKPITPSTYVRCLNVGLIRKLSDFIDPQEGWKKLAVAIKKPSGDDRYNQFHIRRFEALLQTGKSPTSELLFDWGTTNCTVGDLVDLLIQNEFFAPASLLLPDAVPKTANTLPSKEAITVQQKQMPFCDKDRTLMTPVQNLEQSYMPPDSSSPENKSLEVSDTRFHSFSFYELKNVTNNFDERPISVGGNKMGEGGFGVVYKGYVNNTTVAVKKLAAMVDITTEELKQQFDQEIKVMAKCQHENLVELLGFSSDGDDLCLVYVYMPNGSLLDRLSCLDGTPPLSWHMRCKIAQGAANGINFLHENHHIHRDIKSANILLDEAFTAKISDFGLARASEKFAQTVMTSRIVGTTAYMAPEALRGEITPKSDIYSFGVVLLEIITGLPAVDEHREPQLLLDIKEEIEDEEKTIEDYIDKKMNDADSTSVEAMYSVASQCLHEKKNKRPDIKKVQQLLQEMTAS

SMILES	EC50 (TNFα; [1]) [nM]	IC50 (IRAK4 enzyme; TR-FRET (HTRF)) [nM]	IC50 (IRAK4 enzyme; TR-FRET) [nM]	EC50 (TNFα; TNFα by TR-FRET) [nM]	EC50 (TNFα; [2]) [nM]
CNC(=O)NC[C@H]1C[C@H](Nc2cc(-c3ccc4cc(C#N)cnn34)ncc2C(=O)NC[C@@H](F)C(C)(C)O)C1 [Example 788, 6-(3-cyanopyrrolo[1,2-b]pyridazin-7-yl)-N-((R)-2-fluoro-3-hydroxy-3-methylbutyl)-4-(((1r,3R)-3-((3-methylureido)methyl)cyclobutyl)amino) nicotinamide]	90	< 1	–	–	–
COC(=O)NC(C)(C)CCNC(=O)c1cnc(-c2ccc3cc(C#N)cnn23)cc1NC12CCC(O)(CC1)CC2 [Example 343, Methyl (4-(6-(3-cyanopyrrolo[1,2-b]pyridazin-7-yl)-4-((4-hydroxybicyclo[2.2.2]octan-1-yl)amino)nicotinamido)-2-methylbutan-2-yl)carbamate]	38	–	1	–	–
CNC(=O)c1ccc(Nc2cc(-c3ccc4cc(C#N)cnn34)ncc2C(=O)NC[C@@H](F)C(C)(C)O)cc1 [Example 350, (R)-6-(3-cyanopyrrolo[1,2-b]pyridazin-7-yl)-N-(2-fluoro-3-hydroxy-3-methylbutyl)-4-((4-(methylcarbamoyl)phenyl)amino)nicotinamide]	12	–	< 1	–	–
CC(C)(O)[C@H](F)CNC(=O)c1cnc(-c2ccc3cc(C#N)cnn23)cc1NC1CCC(=O)NC1 (stereo partly drawn) [Example 367, 6-(3-cyanopyrrolo[1,2-b]pyridazin-7-yl)-N-((R)-2-fluoro-3-hydroxy-3-methylbutyl)-4-((6-oxopiperidin-3-yl)amino)nicotinamide]	1560	–	3	–	–
N#CCNC(=O)c1cnc(-c2ccc3cc(C#N)cnn23)cc1NC12CCC(O)(CC1)CC2 [Example 348, N-(cyanomethyl)-6-(3-cyanopyrrolo[1,2-b]pyridazin-7-yl)-4-((4-hydroxybicyclo[2.2.2]octan-1-yl)amino) nicotinamide]	19	–	< 1	–	–
CC(C)Nc1cc(-c2ccc3cc(C#N)cnn23)ncc1C(=O)NCC(=O)C(C)(C)O [Example 332, 6-(3-cyanopyrrolo[1,2-b]pyridazin-7-yl)-N-(3-hydroxy-3-methyl-2-oxobutyl)-4-(isopropyl-amino)nicotinamide]	43	–	< 1	–	–
CC(C)(O)[C@H](F)CNC(=O)c1cnc(-c2ccc3cc(C#N)cnn23)cc1Nc1cnn2c1CCCC2 [Example 129, (R)-6-(3-cyanopyrrolo[1,2-b]pyridazin-7-yl)-N-(2-fluoro-3-hydroxy-3-methylbutyl)-4-((4,5,6,7-tetrahydropyrazolo[1,5-a]pyridin-3-yl)amino)nicotinamide]	377	–	6	–	–
CCc1ncc(Nc2cc(-c3ccc4cc(C#N)cnn34)ncc2C(=O)NC[C@@H](F)C(C)(C)O)cn1 [Example 680, (R)-6-(3-cyanopyrrolo[1,2-b]pyridazin-7-yl)-4-((2-ethylpyrimidin-5-yl)amino)-N-(2-fluoro-3-hydroxy-3-methylbutyl)nicotinamide]	15	< 1	–	–	–
CC(C)(O)[C@H](F)CNC(=O)c1cnc(-c2ccc3cc(C#N)cnn23)cc1NC1CCC(C(=O)N2CCOCC2)CC1 (stereo partly drawn) [Example 173, 6-(3-cyanopyrrolo[1,2-b]pyridazin-7-yl)-N-((R)-2-fluoro-3-hydroxy-3-methylbutyl)-4-(((1r,4R)-4-(morpholine-4-carbonyl)cyclohexyl)amino) nicotinamide]	148	–	2	–	–
COC(C)(C)[C@H](F)CNC(=O)c1cnc(-c2ccc3cc(C#N)cnn23)cc1N[C@H]1CCC[C@@H](O)C1 [Example 518, 6-(3-cyanopyrrolo[1,2-b]pyridazin-7-yl)-N-((R)-2-fluoro-3-methoxy-3-methylbutyl)-4-(((1S,3R)-3-hydroxycyclohexyl)amino) nicotinamide]	13	< 1	–	–	–
CC(C)(O)[C@H](F)CNC(=O)c1cnc(-c2ccc3cc(C#N)cnn23)cc1Nc1cnn(C2CNCC2(F)F)c1 (single isomer, unassigned) [Example 869]	–	–	< 1	14	–
CC(C)(O)[C@H](F)CNC(=O)c1cnc(-c2ccc3cc(C#N)cnn23)cc1NC1CC2(CCNC2)C1 (stereo partly drawn) [Example 902, (R)-4-(6-azaspiro[3.4]octan-2-ylamino)-6-(3-cyanopyrrolo[1,2-b]pyridazin-7-yl)-N-(2-fluoro-3-hydroxy-3-methyl-butyl)nicotinamide]	–	–	1	–	1230
CC(C)(O)[C@H](F)CNC(=O)c1cnc(-c2ccc3cc(C#N)cnn23)cc1N[C@@H]1C[C@H]2CC[C@@H]1O2 [Example 94, 4-(((1S,2R,4R)-7-oxa-bicyclo[2.2.1]heptan-2-yl)amino)-6-(3-cyanopyrrolo[1,2-b]pyridazin-7-yl)-N-((R)-2-fluoro-3-hydroxy-3-methylbutyl)nicotinamide]	92	–	1	–	–
CC(C)(O)[C@H](F)CNC(=O)c1cnc(-c2ccc3cc(C#N)cnn23)cc1N[C@H]1CC[C@H](NC(=O)OCC2CC2)CC1 [Example 287, cyclopropylmethyl ((1R,4r)-4-((2-(3-cyanopyrrolo[1,2-b]pyridazin-7-yl)-5-(((R)-2-fluoro-3-hydroxy-3-methylbutyl)carbamoyl)pyridin-4-yl)amino)cyclohexyl)carbamate]	147	–	1	–	–
N#Cc1cnn2c(-c3cc(NC45CCC(O)(CC4)CC5)c(C(=O)NC4(CF)CC4)cn3)ccc2c1 [Example 964, 6-(3-cyanopyrrolo[1,2-b]pyridazin-7-yl)-N-(1-(fluoromethyl)cyclo-propyl)-4-((4-hydroxy-bicyclo[2.2.2]octan-1-yl)amino)nicotinamide]	–	–	1	–	68
CC(C)(O)[C@H](F)CNC(=O)c1cnc(-c2ccc3cc(C#N)cnn23)cc1N[C@H]1C[C@H](S(C)(=O)=O)C1 [Example 443, 6-(3-cyanopyrrolo[1,2-b]pyridazin-7-yl)-N-((R)-2-fluoro-3-hydroxy-3-methylbutyl)-4-(((1r,3R)-3-(methylsulfonyl)cyclobutyl)amino)nicotinamide]	110	1	–	–	–
CC(C)(O)[C@H](F)CNC(=O)c1cnc(-c2ccc3cc(C#N)cnn23)cc1Nc1ccc(N2CCNCC2)nc1 [Example 213, (R)-6-(3-cyanopyrrolo[1,2-b]pyridazin-7-yl)-N-(2-fluoro-3-hydroxy-3-methylbutyl)-4-((6-(piperazin-1-yl)pyridin-3-yl)amino) nicotinamide]	51	–	< 1	–	–
N#Cc1cnn2c(-c3cc(NC4COC4)c(C(=O)N[C@H]4CC[C@H](NC(=O)C5CC5)CC4)cn3)ccc2c1 [Example 526, 6-(3-cyanopyrrolo[1,2-b]pyridazin-7-yl)-N-((1r,4r)-4-(cyclopropane-carboxamido)cyclohexyl)-4-(oxetan-3-ylamino) nicotinamide]	99	1	–	–	–
CC1(F)CN(C(=O)CNC(=O)c2cnc(-c3ccc4cc(C#N)cnn34)cc2NC23CCC(O)(CC2)CC3)C1 [Example 797, 6-(3-cyanopyrrolo[1,2-b]pyridazin-7-yl)-N-(2-(3-fluoro-3-methyl-azetidin-1-yl)-2-oxoethyl)-4-((4-hydroxybicyclo[2.2.2]octan-1-yl)amino) nicotinamide]	–	–	1	–	38
CC(C)(O)[C@H](F)CNC(=O)c1cnc(-c2ccc3cc(C#N)cnn23)cc1NC12CCC(C(=O)N3CCOCC3)(CC1)CC2 [Example 401, (R)-6-(3-cyanopyrrolo[1,2-b]pyridazin-7-yl)-N-(2-fluoro-3-hydroxy-3-methylbutyl)-4-((4-(morpholine-4-carbonyl)bicyclo[2.2.2]octan-1-yl)amino)nicotinamide]	65	2	–	–	–
Cc1nsc(Nc2cc(-c3ccc4cc(C#N)cnn34)ncc2C(=O)NC[C@@H](F)C(C)(C)O)n1 [Example 142, (R)-6-(3-cyanopyrrolo[1,2-b]pyridazin-7-yl)-N-(2-fluoro-3-hydroxy-3-methylbutyl)-4-((3-methyl-1,2,4-thiadiazol-5-yl)amino) nicotinamide]	169	–	4	–	–
CC(C)(O)[C@H](F)CNC(=O)c1cnc(-c2ccc3cc(C#N)cnn23)cc1N[C@H]1C[C@@](C)(O)C1 [Example 450, 6-(3-cyanopyrrolo[1,2-b]pyridazin-7-yl)-N-((R)-2-fluoro-3-hydroxy-3-methylbutyl)-4-(((1s,3S)-3-hydroxy-3-methylcyclo-butyl)amino)nicotinamide]	44	< 1	–	–	–
COC(=O)NCCCCNc1cc(-c2ccc3cc(C#N)cnn23)ncc1C(=O)NC[C@@H](F)C(C)(C)O [Example 717, (R)-methyl (4-((2-(3-cyano-pyrrolo[1,2-b]pyridazin-7-yl)-5-((2-fluoro-3-hydroxy-3-methylbutyl)carbamoyl)pyridin-4-yl)amino)butyl) carbamate]	66	< 1	–	–	–
CC(C)Nc1cc(-c2ccc3cc(C#N)cnn23)ncc1C(=O)N[C@H]1CCOC[C@@H]1F [Example 322, 6-(3-cyanopyrrolo[1,2-b]pyridazin-7-yl)-N-((3R,4S)-3-fluorotetrahydro-2H-pyran-4-yl)-4-(isopropylamino) nicotinamide]	169	–	5	–	–
CC(C)(O)[C@H](F)CNC(=O)c1cnc(-c2ccc3cc(C#N)cnn23)cc1Nc1ccnc(F)c1 [Example 591, (R)-6-(3-cyanopyrrolo[1,2-b]pyridazin-7-yl)-N-(2-fluoro-3-hydroxy-3-methylbutyl)-4-((2-fluoro-pyridin-4-yl)amino) nicotinamide]	180	2	–	–	–
CC(C)(O)[C@H](F)CNC(=O)c1cnc(-c2ccc3cc(C#N)cnn23)cc1Nc1ccc(C(F)F)nc1 [Example 227, (R)-6-(3-cyanopyrrolo[1,2-b]pyridazin-7-yl)-4-((6-(difluoromethyl)pyridin-3-yl)amino)-N-(2-fluoro-3-hydroxy-3-methylbutyl)nicotinamide]	31	–	< 1	–	–
